Experimental findings from ChEMBL document CHEMBL5291721, “A preclinical secondary pharmacology resource illuminates target-adverse drug reaction associations of marketed drugs” (Nat Commun, 2023) are described below.

Experiment [1] has as its target Bile salt export pump (Homo sapiens, UniProt O95342). In kind it is functional.
For experiment [2], the target named is T1, Adenosine receptor A3 (Homo sapiens, UniProt P0DMS8).
T1 sequence (P0DMS8 whole entry): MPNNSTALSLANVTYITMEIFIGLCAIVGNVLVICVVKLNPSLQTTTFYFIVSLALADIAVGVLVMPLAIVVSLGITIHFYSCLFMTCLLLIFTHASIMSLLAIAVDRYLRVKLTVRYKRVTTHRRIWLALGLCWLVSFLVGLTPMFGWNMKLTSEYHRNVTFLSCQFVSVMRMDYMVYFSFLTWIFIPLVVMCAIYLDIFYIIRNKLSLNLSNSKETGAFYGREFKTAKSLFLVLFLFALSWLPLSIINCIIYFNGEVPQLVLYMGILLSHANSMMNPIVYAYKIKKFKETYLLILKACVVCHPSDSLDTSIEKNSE

Experiment [3] addresses T2, Alpha-2A adrenergic receptor (Homo sapiens, UniProt P08913).
T2 sequence (P08913 whole entry): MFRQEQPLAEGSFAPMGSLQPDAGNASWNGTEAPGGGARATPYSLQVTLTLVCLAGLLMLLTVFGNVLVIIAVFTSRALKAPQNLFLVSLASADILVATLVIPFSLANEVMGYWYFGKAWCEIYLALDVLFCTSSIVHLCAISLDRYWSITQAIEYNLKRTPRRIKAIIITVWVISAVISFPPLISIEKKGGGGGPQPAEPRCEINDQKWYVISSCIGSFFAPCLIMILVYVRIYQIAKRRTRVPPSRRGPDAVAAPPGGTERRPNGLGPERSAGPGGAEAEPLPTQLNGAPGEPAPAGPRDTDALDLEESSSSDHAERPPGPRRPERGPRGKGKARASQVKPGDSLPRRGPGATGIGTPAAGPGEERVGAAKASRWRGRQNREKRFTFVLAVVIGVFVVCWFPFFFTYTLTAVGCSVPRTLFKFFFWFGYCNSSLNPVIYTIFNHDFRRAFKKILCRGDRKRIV
In kind it is functional, cell-based.

Experiment [4] has as its target T3, Alpha-2C adrenergic receptor (Homo sapiens, UniProt P18825).
T3 sequence (P18825 whole entry): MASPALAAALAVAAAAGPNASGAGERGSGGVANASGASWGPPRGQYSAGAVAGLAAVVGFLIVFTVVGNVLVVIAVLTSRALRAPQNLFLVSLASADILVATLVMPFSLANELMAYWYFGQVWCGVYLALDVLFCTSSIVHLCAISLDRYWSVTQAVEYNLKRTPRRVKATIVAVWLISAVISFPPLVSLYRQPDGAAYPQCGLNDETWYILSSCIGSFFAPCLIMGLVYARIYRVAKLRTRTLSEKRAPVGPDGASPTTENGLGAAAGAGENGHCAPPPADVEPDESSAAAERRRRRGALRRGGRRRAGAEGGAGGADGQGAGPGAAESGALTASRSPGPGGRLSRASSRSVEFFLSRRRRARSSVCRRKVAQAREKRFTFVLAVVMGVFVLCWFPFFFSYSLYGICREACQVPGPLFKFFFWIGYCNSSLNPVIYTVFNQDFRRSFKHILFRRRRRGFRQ
In kind it is functional.

Experiment [5] has as its target T4, Gastrin/cholecystokinin type B receptor (Homo sapiens, UniProt P32239).
T4 sequence (P32239 whole entry): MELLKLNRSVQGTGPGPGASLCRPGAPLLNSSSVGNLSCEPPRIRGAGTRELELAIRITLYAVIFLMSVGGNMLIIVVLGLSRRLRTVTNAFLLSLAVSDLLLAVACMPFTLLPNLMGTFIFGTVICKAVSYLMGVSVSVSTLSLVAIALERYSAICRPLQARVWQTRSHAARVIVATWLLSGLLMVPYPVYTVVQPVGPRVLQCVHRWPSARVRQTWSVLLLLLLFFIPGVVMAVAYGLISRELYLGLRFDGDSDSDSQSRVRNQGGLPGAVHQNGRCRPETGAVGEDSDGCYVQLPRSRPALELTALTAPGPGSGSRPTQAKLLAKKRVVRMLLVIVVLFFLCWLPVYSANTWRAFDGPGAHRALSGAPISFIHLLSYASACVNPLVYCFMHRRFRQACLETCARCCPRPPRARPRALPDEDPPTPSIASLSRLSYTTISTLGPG

For experiment [6], the target named is T5, Endothelin-1 receptor (Homo sapiens, UniProt P25101).
T5 sequence (P25101 whole entry): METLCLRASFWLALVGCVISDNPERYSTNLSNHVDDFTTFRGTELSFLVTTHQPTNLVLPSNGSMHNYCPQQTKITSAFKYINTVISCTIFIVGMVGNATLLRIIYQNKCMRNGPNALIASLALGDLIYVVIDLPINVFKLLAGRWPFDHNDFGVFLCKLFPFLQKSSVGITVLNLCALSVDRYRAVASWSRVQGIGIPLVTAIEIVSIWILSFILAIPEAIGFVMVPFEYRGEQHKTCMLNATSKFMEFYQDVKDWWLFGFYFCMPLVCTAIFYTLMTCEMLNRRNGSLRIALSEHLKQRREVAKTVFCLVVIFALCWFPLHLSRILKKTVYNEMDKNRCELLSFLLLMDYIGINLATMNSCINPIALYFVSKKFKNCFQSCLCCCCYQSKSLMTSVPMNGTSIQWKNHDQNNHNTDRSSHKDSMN

Experiment [7] deals with Gamma-aminobutyric acid receptor subunit alpha-1 (Rattus norvegicus, UniProt P62813).
Sequence of Gamma-aminobutyric acid receptor subunit alpha-1 (P62813 whole entry): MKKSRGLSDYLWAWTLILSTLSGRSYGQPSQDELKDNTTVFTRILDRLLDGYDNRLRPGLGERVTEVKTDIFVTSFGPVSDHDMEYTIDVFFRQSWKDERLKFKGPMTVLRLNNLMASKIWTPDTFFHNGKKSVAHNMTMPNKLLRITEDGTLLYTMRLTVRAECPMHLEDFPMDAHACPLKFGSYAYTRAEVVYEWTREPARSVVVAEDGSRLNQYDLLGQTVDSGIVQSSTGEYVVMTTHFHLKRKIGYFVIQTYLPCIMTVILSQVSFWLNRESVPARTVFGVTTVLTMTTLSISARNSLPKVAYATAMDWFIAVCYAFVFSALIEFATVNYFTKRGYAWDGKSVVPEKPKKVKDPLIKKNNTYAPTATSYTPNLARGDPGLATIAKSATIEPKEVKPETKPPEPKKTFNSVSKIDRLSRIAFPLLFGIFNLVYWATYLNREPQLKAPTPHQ
Experiment [8] deals with T6, Neuropeptide Y receptor type 1 (Homo sapiens, UniProt P25929).
T6 sequence (P25929 whole entry): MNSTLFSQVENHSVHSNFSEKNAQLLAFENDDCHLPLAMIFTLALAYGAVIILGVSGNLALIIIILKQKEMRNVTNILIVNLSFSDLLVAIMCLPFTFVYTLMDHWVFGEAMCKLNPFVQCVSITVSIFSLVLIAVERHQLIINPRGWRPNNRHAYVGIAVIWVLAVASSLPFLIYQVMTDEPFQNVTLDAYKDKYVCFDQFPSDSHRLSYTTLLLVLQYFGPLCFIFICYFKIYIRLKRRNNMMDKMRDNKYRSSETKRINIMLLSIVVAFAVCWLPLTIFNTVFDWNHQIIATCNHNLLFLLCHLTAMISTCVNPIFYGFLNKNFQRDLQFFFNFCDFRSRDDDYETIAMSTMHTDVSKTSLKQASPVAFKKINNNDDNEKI

The target in experiment [9] is Kappa-type opioid receptor (Homo sapiens, UniProt P41145).
Sequence of Kappa-type opioid receptor (P41145 whole entry): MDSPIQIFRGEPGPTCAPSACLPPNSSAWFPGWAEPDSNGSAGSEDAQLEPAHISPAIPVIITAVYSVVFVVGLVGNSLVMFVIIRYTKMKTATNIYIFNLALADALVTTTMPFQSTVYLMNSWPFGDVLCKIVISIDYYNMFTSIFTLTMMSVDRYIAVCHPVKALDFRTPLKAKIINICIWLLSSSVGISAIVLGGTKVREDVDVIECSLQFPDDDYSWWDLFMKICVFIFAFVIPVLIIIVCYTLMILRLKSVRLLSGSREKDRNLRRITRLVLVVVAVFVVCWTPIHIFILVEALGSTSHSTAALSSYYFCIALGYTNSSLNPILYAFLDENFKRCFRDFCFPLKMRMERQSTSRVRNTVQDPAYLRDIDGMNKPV
Experiment [10] concerns the target 3',5'-cyclic-AMP phosphodiesterase 4D (Homo sapiens, UniProt Q08499). In kind it is functional.
Note: assay procedure not described here.

Sequence of 3',5'-cyclic-AMP phosphodiesterase 4D (Q08499 whole entry): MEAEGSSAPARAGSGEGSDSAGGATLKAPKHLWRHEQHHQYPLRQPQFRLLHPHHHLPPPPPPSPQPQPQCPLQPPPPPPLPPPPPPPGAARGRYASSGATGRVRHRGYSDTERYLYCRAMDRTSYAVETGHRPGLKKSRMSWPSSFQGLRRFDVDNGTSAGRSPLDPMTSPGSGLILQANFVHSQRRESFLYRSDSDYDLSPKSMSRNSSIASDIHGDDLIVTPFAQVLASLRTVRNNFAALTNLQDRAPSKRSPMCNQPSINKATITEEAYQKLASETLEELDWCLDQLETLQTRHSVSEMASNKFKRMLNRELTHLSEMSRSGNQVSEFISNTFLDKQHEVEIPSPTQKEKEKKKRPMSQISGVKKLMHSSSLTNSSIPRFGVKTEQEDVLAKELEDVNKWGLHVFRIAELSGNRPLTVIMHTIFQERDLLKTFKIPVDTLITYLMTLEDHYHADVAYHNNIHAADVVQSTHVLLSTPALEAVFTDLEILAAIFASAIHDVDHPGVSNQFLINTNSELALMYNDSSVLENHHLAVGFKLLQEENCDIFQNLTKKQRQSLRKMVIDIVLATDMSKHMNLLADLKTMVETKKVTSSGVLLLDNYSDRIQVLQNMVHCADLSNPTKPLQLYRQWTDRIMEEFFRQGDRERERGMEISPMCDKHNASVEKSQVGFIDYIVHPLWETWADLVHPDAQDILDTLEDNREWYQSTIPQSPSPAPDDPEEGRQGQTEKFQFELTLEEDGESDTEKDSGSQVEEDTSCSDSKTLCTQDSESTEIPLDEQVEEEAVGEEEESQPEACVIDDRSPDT
Sequence of Bile salt export pump (O95342 whole entry): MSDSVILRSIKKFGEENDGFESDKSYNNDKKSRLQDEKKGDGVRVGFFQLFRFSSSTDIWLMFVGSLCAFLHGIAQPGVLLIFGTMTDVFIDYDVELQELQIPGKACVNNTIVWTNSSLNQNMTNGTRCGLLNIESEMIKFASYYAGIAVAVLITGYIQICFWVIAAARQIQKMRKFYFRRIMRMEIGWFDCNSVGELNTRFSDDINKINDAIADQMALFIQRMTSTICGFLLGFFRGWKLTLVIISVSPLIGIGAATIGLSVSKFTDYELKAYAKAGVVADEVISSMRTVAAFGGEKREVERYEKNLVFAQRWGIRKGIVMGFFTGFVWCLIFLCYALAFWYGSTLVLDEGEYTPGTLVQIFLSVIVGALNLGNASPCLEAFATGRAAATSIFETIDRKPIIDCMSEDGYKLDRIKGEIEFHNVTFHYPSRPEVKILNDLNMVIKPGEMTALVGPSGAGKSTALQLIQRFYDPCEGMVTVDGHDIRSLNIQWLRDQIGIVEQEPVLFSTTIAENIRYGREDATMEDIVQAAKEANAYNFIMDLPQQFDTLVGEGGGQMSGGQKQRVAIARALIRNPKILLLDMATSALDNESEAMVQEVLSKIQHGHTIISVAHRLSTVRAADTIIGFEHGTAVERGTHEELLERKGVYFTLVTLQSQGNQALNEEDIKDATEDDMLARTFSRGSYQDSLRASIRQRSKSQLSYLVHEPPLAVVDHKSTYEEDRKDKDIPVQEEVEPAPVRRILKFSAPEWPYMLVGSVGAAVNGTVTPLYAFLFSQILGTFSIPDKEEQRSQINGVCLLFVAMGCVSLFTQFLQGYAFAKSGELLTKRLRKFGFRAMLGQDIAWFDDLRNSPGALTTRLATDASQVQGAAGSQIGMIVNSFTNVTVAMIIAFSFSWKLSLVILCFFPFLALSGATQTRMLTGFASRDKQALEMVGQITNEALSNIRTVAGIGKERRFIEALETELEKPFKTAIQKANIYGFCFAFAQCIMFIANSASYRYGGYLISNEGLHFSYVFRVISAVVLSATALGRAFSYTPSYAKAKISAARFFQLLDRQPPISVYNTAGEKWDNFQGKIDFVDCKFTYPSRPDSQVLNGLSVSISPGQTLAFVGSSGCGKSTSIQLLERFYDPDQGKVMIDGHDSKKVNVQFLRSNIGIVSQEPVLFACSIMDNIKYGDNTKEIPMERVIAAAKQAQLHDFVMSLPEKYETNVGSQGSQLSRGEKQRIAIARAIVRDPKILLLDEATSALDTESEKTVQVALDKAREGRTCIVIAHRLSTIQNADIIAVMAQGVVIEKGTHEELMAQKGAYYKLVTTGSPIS

On to `CCCc1nc2c(C)cc(-c3nc4ccccc4n3C)cc2n1Cc1ccc(-c2ccccc2C(=O)O)cc1`, for which the AC50 was 5 µM in [1]; 17.4 µM in [2]; 3.96 µM in [3]; 12.5 µM in experiment [4]; over 30 µM in experiment [5]; over 30 µM in experiment [6]. For the same molecule, the AC50 in [7] was over 30 µM; in experiment [8], over 30 µM; in experiment [9] it was over 30 µM; in [10] it was 7.1 µM.
Regarding `CC(=O)NO` [ACETOHYDROXAMIC ACID], the concentration at half-maximal activity (AC50) in experiment [1] is over 300 µM; in experiment [2], over 30 µM.
`C[C@H]1CN(C[C@H](Cc2ccccc2)C(=O)NCC(=O)O)CC[C@@]1(C)c1cccc(O)c1` [ALVIMOPAN]: the results for the concentration at half-maximal activity (AC50) in [1] and in experiment [2] were over 300 µM and over 30 µM, respectively.
Taken in the same sequence, the figures for `O=C(O)c1ccccc1` [BENZOIC ACID] were 260 µM and over 30 µM.
As to `O=C(O)Cc1ccccc1Nc1c(Cl)cccc1Cl` [DICLOFENAC], the AC50 in experiment [1] is over 300 µM; in experiment [2], over 3 µM; in experiment [3], over 10 µM; in [4], over 10 µM; in experiment [5] it was over 30 µM; in experiment [6], over 30 µM. The concentration at half-maximal activity (AC50) was over 10 µM in [7], over 30 µM in experiment [8], over 10 µM in experiment [9] and over 30 µM in experiment [10].
On to `CC(C(=O)O)c1cccc(Oc2ccccc2)c1` (stereo not drawn) [FENOPROFEN], for which the values for the AC50 in [1] and in experiment [2] were over 300 µM and over 30 µM, respectively.
With `Cc1ccc(C)c(OCCCC(C)(C)C(=O)O)c1` [GEMFIBROZIL], the AC50 in experiment [1] is over 300 µM; in experiment [2], over 30 µM; in [3] it was over 10 µM; in experiment [4], over 10 µM; in experiment [5], over 30 µM; in [6], over 30 µM. Also, the AC50 in [7] is over 10 µM; in experiment [8], over 30 µM; in experiment [9], over 10 µM; in experiment [10], over 30 µM.
On to `Cc1cc(=O)oc2cc(O)ccc12` [HYMECROMONE], for which the AC50 in [1] was over 300 µM; in [2] it was over 30 µM.
On to `C[N+]1(C)CCCC(OC(=O)C(O)(c2ccccc2)c2ccccc2)C1` (stereo not drawn) [MEPENZOLATE], for which the AC50 in [1] is over 300 µM; in experiment [2], over 30 µM.
Taken in the same sequence, the figures for `CN(C)c1ccc(O)c2c1C[C@H]1C[C@H]3[C@H](N(C)C)C(O)=C(C(N)=O)C(=O)[C@@]3(O)C(O)=C1C2=O` [MINOCYCLINE] were 83 µM and over 30 µM.
Taken in the same sequence, the figures for `C=CC(=O)Nc1cccc(Oc2nc(Nc3ccc(N4CCN(C)CC4)cc3)nc3ccsc23)c1` [OLMUTINIB] were 13 µM and 0.003 µM.
In the case of `C[N+](C)(C)CCOC(=O)CCC(=O)OCC[N+](C)(C)C` [SUXAMETHONIUM], the AC50 is over 300 µM in [1] and over 30 µM in experiment [2].
Taken in the same sequence, the figures for `Cc1ccc(C(=O)c2ccc(CC(=O)O)n2C)cc1` [TOLMETIN] were over 300 µM and over 30 µM.
Taken in the same sequence, the figures for `Cc1ccccc1C(=O)Nc1ccc(C(=O)N2CCCC(O)c3cc(Cl)ccc32)c(C)c1` (stereo not drawn) [TOLVAPTAN] were 7.87 µM and 11 µM.
On to `CC(C)[C@H](N)C(=O)OCCOCn1cnc2c(=O)[nH]c(N)nc21` [VALACYCLOVIR], for which the AC50 in [1] is over 300 µM; in experiment [3], over 10 µM; in experiment [4] it was over 10 µM; in experiment [5], over 30 µM; in [6] it was over 30 µM; in experiment [7], over 10 µM. In addition, the figures for the AC50 in experiment [8], in experiment [9] and in experiment [10] were over 30 µM, over 10 µM and over 30 µM, respectively.
As for `O=C1Cc2cc(CCN3CCN(c4nsc5ccccc45)CC3)c(Cl)cc2N1` [ZIPRASIDONE], the AC50 in experiment [1] is 18 µM; in experiment [2] it was 8.66 µM; in experiment [5], over 30 µM; in [6], over 30 µM; in experiment [7], over 10 µM; in experiment [8], over 30 µM. In addition, the AC50 in [10] was over 30 µM.

As usually defined, the AC50 is the concentration giving half of the maximal activity seen.
